Laboratory results reported in US7176224B2, “Oxazolyl-aryloxyacetic acid derivatives and their use as PPAR agonists” (Eli Lilly and Company, priority 2000, dated 2007).

Assays:
huPPARα = experiment: Cotransfection assay in CV-1 cells, luciferase reporter; format: cell-based, human; conditions: GAL4 chimeric system, relative to PPARα agonist reference molecule
Protocol: […] binding (ABCD binding) was carried out using SPA technology with PPAR receptors. Tritium-labeled PPARα and PPARγ agonists were used as radioligands for generating displacement curves and IC50 values with compounds of the invention. Cotransfection assays were carried out in CV-1 cells. The reporter plasmid contained an acylCoA oxidase (AOX) PPRE and TK promoter upstream of the luciferase reporter cDNA. Appropriate PPARs and RXRα were constitutively expressed using plasmids containing the CMV promoter. For PPARα and […], interference by endogenous […] in CV-1 cells was an issue. In order to eliminate such interference, a GAL4 chimeric system was used in which the DNA binding domain of the transfected PPAR was replaced by that of GAL4, and the GAL4 response element was utilized in place of the AOX PPRE. Cotransfection efficacy was determined relative to PPARα agonist and […] reference molecules. Efficacies were determined by computer fit to a concentration-response curve, or in some cases at a single high concentration of agonist (10 μM). For binding or cotransfection studies with receptors other than PPARs, similar assays were carried out using appropriate ligands, receptors, reporter constructs, etc., for that particular receptor.
These studies were carried out to evaluate the ability of compounds of the invention to bind to and/or activate various nuclear transcription factors, particularly huPPARα (“hu” indicates “human”) and huPPARγ. These studies provide in vitro data concerning efficacy and selectivity of compounds of the invention. Furthermore, binding and cotransfection data for compounds of the invention were compared with corresponding data for marketed compounds that act on either huPPARα or huPPARγ.

db/db mice = experiment: Evaluation of glucose levels in db/db mice; format: in vivo; conditions: 30 mg/kg oral gavage daily for 7 days; 100% = glucose not differing from lean values
Protocol: Five week old male diabetic (db/db) mice [C57BlKs/j-m +/+ Lepr(db), Jackson Laboratory, Bar Harbor, Me.] or lean littermates (DB/?) were housed 6 per cage (10″20″8″ with aspen chip bedding) with food (Purina 5015) and water available at all times. After an acclimation period of 2 weeks, animals were individually identified by ear notches, weighed, and bled via the tail vein for determination of initial glucose levels. Blood was collected (100 μl) from unfasted animals by wrapping each mouse in a towel, cutting the tip of the tail with a scalpel, and milking blood from the tail into a heparinized capillary tube (Fisher) balanced on the edge of the bench. Sample was discharged into a heparinized microtainer with gel separator (VWR) and retained on ice. Plasma was obtained after centrifugation at 4° C. and glucose measured immediately. Remaining plasma was frozen until the completion of the experiment, when glucose and triglycerides were assayed in all samples. […]
Glucose was measured colorimetrically using commercially purchased reagents (Sigma #315-500). […] The absorbance of the dye produced is linearly related to the analyte in the sample. […] Standards (Sigma #339-11, Sigma #16-11, and Sigma #CC0534 for glucose, triglycerides and total cholesterol, respectively), quality control plasma (Sigma # A2034), and samples (2 or 5 μl/well) were measured in duplicate using 200 μl of reagent. […]

Cc1oc(-c2cccc(-c3ccc(F)cc3)c2)nc1CCOc1ccc(CC(C)(Oc2ccccc2)C(=O)O)cc1 (centres unmarked) [Example 4, 3-(4-{2-[2-(4′-Fluorobiphenyl-3-yl)-5-methyloxazol-4-yl]ethoxy}phenyl)-2-methyl-2-phenoxypropionic acid]
huPPARα CTF Efficacy (huPPARα): 38%
Glucose Normalisation (db/db mice): 91%
